In patent US7232929B2, “Amide derivatives of 2,2,3,3-tetramethylcyclopropane carboxylic acid” (Yissum Research Development Company of the Hebrew …, priority 2003, dated 2007):
Like-named read-outs stand apart in the source and are kept apart here.

Columns and labels:
[1] = tested on: electrically induced convulsions (MES) in rats; experiment: maximal electroshock seizure test (MES), rats, oral; assay type: in vivo, rat; settings: for N/F (fraction of rats responded): MES; for ED50: Rattus norvegicus, oral administration, read-out: ED50 (median effective dose) in the MES model
Source text: (§1) The first model, the maximal electroshock seizure test (MES), is used to show efficacy for antiepileptic agents against partial and generalized seizure type epilepsy, the common epilepsy among therapy resistant epileptic patients. The second model, the subcutaneous metrazole test (scMet) measures seizure threshold and is a standard screening procedure to show efficacy for agents against seizure threshold and absence seizures.

[2] = tested on: chemically induced convulsions (scMet) in rats; experiment: subcutaneous metrazole test (scMet), rats, oral; assay type: in vivo, rat; settings: for ED50: Rattus norvegicus, po, read-out: ED50 in the scMet model; for N/F (fraction of rats responded): scMET
Source text: as §1

[3] = tested on: electrically induced convulsions (MES) in mice; experiment: maximal electroshock seizure test (MES), mice, ip; assay type: in vivo; settings: Mus musculus, ip administration, read-out: ED50 in the MES model
Source text: as §1

[4] = tested on: chemically induced convulsions (scMet) in mice; experiment: subcutaneous metrazole test (scMet), mice, ip; assay type: in vivo; settings: Mus musculus, read-out: ED50 in the scMet model
Source text: as §1

[5] = tested on: tactile allodynia in SNL rats; experiment: rat spinal nerve ligation (SNL) model for neuropathic pain, von Frey filaments; assay type: in vivo
Experimental: Experiments were performed on male Sprague-Dawley rats (Harlan laboratories, Jerusalem, Israel) weighing 175–200 g. The mechanical sensitivity (tactile allodynia) of the foot was quantified by the occurrence of foot withdrawal in response to normally innocuous mechanical stimuli using nine different von Frey filaments (VFF) ranging from 0.6 to 26 g. The rats were placed on a metal mesh floor covered with a transparent plastic dome and a period of acclimatization was allowed prior to testing. VFF were applied from underneath the mesh floor to the plantar surface of the foot. Each trial consisted of repeated applications of each of the VFFs in an ascending order for 5 times, each for a period of 1 s. If the rat withdrew the foot at least 3 times out of 5 at a specific VFF no further ascending filaments were tested and this filament was considered as a withdrawal threshold (response). Mechanical stimulus trials with the series of ascending VFF were repeated 2 times for a given time point. The repeated measurements were averaged and taken as the paw withdrawal threshold on a given time point.
For drug testing, the effect on neuropathic pain was measured 5–6 days following operation. Rats responding to mechanical stimuli of 10 g or less (in the operated leg) were eligible for the study.
The procedure of ligation and cut of the spinal nerves for induction of neuropathic pain was performed as previously described by Sheen and Chung (Sheen, K. and Chung, J. M., Signs of neuropathic pain depend on signals from injured nerve fibers in a rat model, Brain Research 610: 62–68 (1993)). Briefly, under ketamine-xylazine anaesthesia rats were placed in a prone position and the left paraspinal muscles were separated from spinous processes at the L4-S2 level. Part of the L6 transverse process was removed and the L4–L6 spinal nerves were identified. The L5–L6 spinal nerves were isolated and tightly ligated and cut, distal to the dorsal root ganglion and proximal to the formation of the sciatic nerve. Following complete […] the wound was sutured.
For all the studies, appropriate amounts of the tested compound were suspended in 0.5% methylcellulose to a volume of 4 mL/kg body weight. TMC-Urea and methylcellulose (MC, vehicle) were administered intraperitoneally (i.p) to rats at postoperative days 7, 14 and 21 in a double blind randomized crossover manner.
Rats that obtained threshold of 15 g and above, back to pre-operation baseline, were regarded free of tactile allodynia.
Median effective dose (ED50) and its 95% confidence intervals were calculated using the pharmacodynamic software package WinNonlin, version 4.0.1 (SCI Software, Lexington, Ky., U.S.A.).
Threshold data from VFF testing are presented as actual threshold (absolute) in grams and as percent of absolute responders.
For statistical analyses the nonparametric two-tailed Mann-Whitney U was used. A p value less than 0.05 was considered significant.

rats [6] = experiment: neurotoxicity, gait and stance test, rats, po; settings: for protective index or safety of margin TD50/ED50: TD50 / MES ED50
Experimental: (§2) Neurotoxicity of the claimed agents was assessed in mice (ip. administration) in the rotorod ataxia test and in rats (po. administration) in the gait and stance test which assesses minimal neurotoxicity. The term qauntitating the neurotoxicity is the median neurological toxic dose (TD50).
The protective index (PI) is defined as the ratio of TD50 and ED50 (PI=TD50/ED50). The PI is used to show a useful separation between neurotoxicity and antiepileptic activity. The larger the PI, the better the separation between neurotoxicity and efficacious doses.

[7] = neurotoxicity, rotorod ataxia test, mice, ip; settings: mouse, in vivo
Experimental: as §2

[8] = tested on: electrically induced convulsions (MES) in rats; settings: literature comparison; cited from earlier work
[9] = tested on: electrically induced convulsions (MES) in mice; settings: literature comparison; cited from earlier work
[10] = tested on: animal models of epilepsy; settings: cited from earlier work
mouse model = settings: cited from earlier work
[11] = tested on: chemically induced convulsions (scMet) in rats; settings: literature comparison, inactive at 250 mg/kg; cited from earlier work
rats [12] = settings: comparison values; cited from earlier work

CC1(C)C(C(=O)NC(N)=O)C1(C)C [Compound I, N-2,2,3,3-tetramethylcyclopropanecarbonyl urea]
N/F (fraction of rats responded) ([1]; dose 10 mg/kg): 0/8 | N/F (fraction of rats responded) ([1]; dose 20 mg/kg): 4/8 | N/F (fraction of rats responded) ([1]; dose 40 mg/kg): 5/8 | N/F (fraction of rats responded) ([1]; dose 80 mg/kg): 7/8 | ED50 [1]: 29.4 mg/kg | ED50 [2]: 91.8 mg/kg | N/F (fraction of rats responded) ([2]; dose 25 mg/kg): 1/8 | N/F (fraction of rats responded) ([2]; dose 50 mg/kg): 3/8 | N/F (fraction of rats responded) ([2]; dose 100 mg/kg): 3/8 | N/F (fraction of rats responded) ([2]; dose 200 mg/kg): 6/8 | N/F (fraction of rats responded) ([2]; dose 400 mg/kg): 8/8 | ED50 [3]: 90 mg/kg | ED50 [4]: 125 mg/kg | Allodynic response, Total responders ([5]; 20 mg/kg ip): 0/9 | Allodynic response (number of rats responded/total number of rats) ([5]; 20 mg/kg ip, 30 min): 0/9 | Allodynic response (number of rats responded/total number of rats) ([5]; 20 mg/kg ip, 60 min): 0/9 | Allodynic response (number of rats responded/total number of rats) ([5]; 20 mg/kg ip, 120 min): 0/9 | Allodynic response (number of rats responded/total number of rats) ([5]; 20 mg/kg ip, 180 min): 0/9 | Allodynic response (number of rats responded/total number of rats) ([5]; 20 mg/kg ip, 240 min): 0/9 | Allodynic response, Total responders ([5]; 60 mg/kg ip): 0/9 | Allodynic response (number of rats responded/total number of rats) ([5]; 60 mg/kg ip, 30 min): 0/9 | Allodynic response (number of rats responded/total number of rats) ([5]; 60 mg/kg ip, 60 min): 0/9 | Allodynic response (number of rats responded/total number of rats) ([5]; 60 mg/kg ip, 120 min): 0/9 | Allodynic response (number of rats responded/total number of rats) ([5]; 60 mg/kg ip, 180 min): 0/9 | Allodynic response (number of rats responded/total number of rats) ([5]; 60 mg/kg ip, 240 min): 0/9 | Allodynic response, Total responders ([5]; 120 mg/kg ip): 3/9 | Allodynic response (number of rats responded/total number of rats) ([5]; 120 mg/kg ip, 30 min): 0/9 | Allodynic response (number of rats responded/total number of rats) ([5]; 120 mg/kg ip, 60 min): 1/9 | Allodynic response (number of rats responded/total number of rats) ([5]; 120 mg/kg ip, 120 min): 3/9 | Allodynic response (number of rats responded/total number of rats) ([5]; 120 mg/kg ip, 180 min): 3/9 | Allodynic response (number of rats responded/total number of rats) ([5]; 120 mg/kg ip, 240 min): 3/9 | Allodynic response, Total responders ([5]; 180 mg/kg ip): 3/7 | Allodynic response (number of rats responded/total number of rats) ([5]; 180 mg/kg ip, 30 min): 0/7 | Allodynic response (number of rats responded/total number of rats) ([5]; 180 mg/kg ip, 60 min): 1/7 | Allodynic response (number of rats responded/total number of rats) ([5]; 180 mg/kg ip, 120 min): 3/7 | Allodynic response (number of rats responded/total number of rats) ([5]; 180 mg/kg ip, 180 min): 3/7 | Allodynic response (number of rats responded/total number of rats) ([5]; 180 mg/kg ip, 240 min): 3/7 | Allodynic response, Total responders ([5]; 240 mg/kg ip): 9/10 | Allodynic response (number of rats responded/total number of rats) ([5]; 240 mg/kg ip, 30 min): 0/10 | Allodynic response (number of rats responded/total number of rats) ([5]; 240 mg/kg ip, 60 min): 2/10 | Allodynic response (number of rats responded/total number of rats) ([5]; 240 mg/kg ip, 120 min): 8/10 | Allodynic response (number of rats responded/total number of rats) ([5]; 240 mg/kg ip, 180 min): 8/10 | Allodynic response (number of rats responded/total number of rats) ([5]; 240 mg/kg ip, 240 min): 8/10 | ED50 ([5]; Rattus norvegicus, ip, 2 h, i.p., at 120 min post-dose, read-out: ED50 (antiallodynic, rats free of tactile allodynia)): 171 mg/kg | effect on tactile allodynia ([5]; i.p., significant reduction at 120 to 240 min at 120-240 mg/kg): decreased tactile allodynia in a dose-dependent manner | protective index or safety of margin TD50/ED50 (rats [6]): 18.5 | TD50 (median neurological toxic dose) (rats [6]; oral administration): 538 mg/kg

CONC(=O)C1C(C)(C)C1(C)C [Compound V, N-methoxy-2,2,3,3-tetramethylcyclopropane carboxamide]
ED50 [2]: 35 mg/kg | ED50 [3]: 115 mg/kg | ED50 [4]: 74 mg/kg | TD50 [7]: 166 mg/kg

CC1(C)C(C(=O)Nc2nnc(S(N)(=O)=O)s2)C1(C)C [Compound VI, 5-(2,2,3,3-tetramethylcyclopropanecarbonylamido)-1,3,4-thiadiazole-2-sulfonamide]
ED50 [3]: 16 mg/kg

CN(C)C(=O)NC(=O)C1C(C)(C)C1(C)C [II, 1,1-N,N-dimethyl-2,2,3,3-tetramethylcyclopropanecarbonyl urea]
ED50 [1]: 87 mg/kg | neurotoxicity (rats [6]; oral, doses up to 500 mg/kg): no neurotoxicity

CNC(=O)C1C(C)(C)C1(C)C [M-TMCD, N-methyl 2,2,3,3-tetramethylcyclopropane carboxamide]
ED50 in rat-MES [8]: 82 mg/kg | ED50 in mice-MES [9]: 99 mg/kg | anticonvulsant potency relative to VPA [10]: approximately 10 times | teratogenicity (mouse model; mouse, in vivo): not teratogenic | protective index or safety of margin TD50/ED50 (rats [6]): 2

CC1(C)C(C(=O)NCC(N)=O)C1(C)C [TMC glycinamide, N-2,2,3,3-tetramethylcyclopropyl carbonyl-glycinamide]
ED50 in rat-MES [8]: 82 mg/kg | ED50 in the scMet model [11]: > 250 mg/kg | ED50 in mice-MES [9]: 173 mg/kg | TD50 (median neurological toxic dose) (rats [12]): above 500 mg/kg | protective index or safety of margin TD50/ED50 (rats [6]): > 6.1

CC1(C)C(C(N)=O)C1(C)C [tetramethylcyclopropane carboxamide]
teratogenicity (mouse model; mouse model): not teratogenic
